In patent US20240360081A1, “SULFONAMIDE OREXIN RECEPTOR AGONISTS AND USES THEREOF” (Jazz Pharmaceuticals Ireland Limited, priority 2021, published 2024) one finds EC50 data, which are given here for twelve compounds.

Some results are limits rather than exact numbers.

The test has as its target T1, human recombinant OX2 (hOX2) receptor expressed in CHO cells (Homo sapiens, UniProt O43614).
T1 construct: host or cells: CHO cells (hOX2-CHO)
T1 sequence (O43614 1-444): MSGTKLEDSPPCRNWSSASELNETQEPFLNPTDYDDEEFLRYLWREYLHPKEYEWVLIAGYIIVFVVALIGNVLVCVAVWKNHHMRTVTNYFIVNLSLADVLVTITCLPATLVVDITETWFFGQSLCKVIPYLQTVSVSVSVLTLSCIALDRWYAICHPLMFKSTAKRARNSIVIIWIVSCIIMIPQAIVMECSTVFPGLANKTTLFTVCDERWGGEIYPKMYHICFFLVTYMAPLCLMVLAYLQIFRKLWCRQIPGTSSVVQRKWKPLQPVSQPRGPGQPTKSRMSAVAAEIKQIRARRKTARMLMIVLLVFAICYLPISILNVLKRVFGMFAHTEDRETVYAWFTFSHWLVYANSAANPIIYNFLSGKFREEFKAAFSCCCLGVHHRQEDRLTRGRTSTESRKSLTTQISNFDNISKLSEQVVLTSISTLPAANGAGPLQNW
In words: IP-1 accumulation assay (IP-One HTRF) in hOX2-CHO cells. The settings on record: 60 min at 37° C., 11 points CRC, response as % of maximal OX-A response. Format: cell-based. The method, then:
The accumulation of Inositol-1 Monophosphate (IP-1) was measured using IP-One HTRF® Terbium cryptate based assay (Cisbio) in human recombinant OX1 (hOX1) and at OX2 (hOX2) receptors expressed in CHO cells (DiscoverX) according to the manufacturer's instructions for cells tested in suspension.
hOX1-CHO and hOX2-CHO cells were seeded into white 384-well plates at a density of 20,000 cells/well in Hank's Balanced Salt Solution (HBSS) containing 20 mM HEPES pH 7.4, 50 mM, LiCl and 0.1% and Bovine Serum Albumin (BSA).
Compounds of the present disclosure were tested in a 11 points concentration response curve (CRC) serially diluted in neat DMSO at 200 fold concentrations and added by Echo acoustic liquid handling (Labcyte) to the cells (0.5% DMSO final in the assay). After 60 min of incubation at 37° C. detection reagents, IP1-d2 tracer and anti-IP1-cryptate were diluted in lysis buffer according to the manufacturer's descriptions and added to the cells.
Following 60 min incubation at room temperature, time-resolved fluorescence (HTRF) was measured at 615 nm and 665 nm by Envision Multilabel reader (Perkin Elmer) and the HTRF ratio (A665/A615x104) was calculated.
The IP-1 accumulation response was expressed as percentage of the maximal OX-A response.
Curve fitting and EC50 estimations were carried out using a four-parameter logistic model using XLfit Software. Mean data of EC50 are calculated from at least two independent experiments performed in duplicates.
In the Tables, below Category A corresponds to compounds displaying an […]<100 nM, Category B between 100 nM and 1,000 nM, Category C between 1,000 nM and 10,000 nM and Category D above 10,000 nM.
As usually defined, the EC50 is the concentration at which the effect is half-maximal. Regarding `Cc1cc(C)c(=O)n(C(CNS(=O)(=O)CF)CO[C@H]2CC[C@@H](c3cccc(F)c3)CC2)c1` (stereo partly drawn) [Example 2at, N-[2-(3,5-dimethyl-2-oxo-1,2-dihydropyridin-1-yl)-3-{[(CIS)-4-(3-fluorophenyl)cyclohexyl]oxy}propyl]-1-fluoromethanesulfonamide], the concentration for a half-maximal effect (EC50) is less than 100 nM.

Take `CS(=O)(=O)NCC(CO[C@H]1CC[C@@H](c2ccccc2)CC1)n1cc(C#N)ccc1=O` (stereo partly drawn) [Example 2r, N-[2-(5-cyano-2-oxo-1,2-dihydropyridin-1-yl)-3-{[(CIS)-4-phenylcyclohexyl]oxy}propyl]methanesulfonamide]: the concentration for a half-maximal effect (EC50) is 1000 to 10000 nM.

Regarding `Cc1cc(C(CNS(=O)(=O)N(C)C)CO[C@H]2CC[C@@H](c3cccc(F)c3)CC2)c(=O)n(C)c1` (stereo partly drawn) [Example 5q, 3-{1-[(dimethylsulfamoyl)amino]-3-{[(CIS)-4-(3-fluorophenyl)cyclohexyl]oxy}propan-2-yl}-1,5-dimethyl-1,2-dihydropyridin-2-one], the EC50 was less than 100 nM.

For the compound `Cc1ccc(=O)n(C(CNS(C)(=O)=O)CO[C@H]2CC[C@@H](c3ccccc3)CC2)c1` (stereo partly drawn) [Example 2i, N-[2-(5-methyl-2-oxo-1,2-dihydropyridin-1-yl)-3-{[(CIS)-4-phenylcyclohexyl]oxy}propyl]methanesulfonamide], the EC50 was 100 to 1000 nM.

For the compound `CS(=O)(=O)NCC(CO[C@H]1CC[C@@H](c2ccccc2)CC1)n1cc(OC(F)F)ccc1=O` (stereo partly drawn) [Example 2q, N-{2-[5-(difluoromethoxy)-2-oxo-1,2-dihydropyridin-1-yl]-3-{[(CIS)-4-phenylcyclohexyl]oxy}propyl}methanesulfonamide], the EC50 lay in the range of 1000 to 10000 nM.

On to `CS(=O)(=O)NCC(CO[C@H]1CC[C@@H](c2ccccc2)CC1)n1cc(C(F)(F)F)ccc1=O` (stereo partly drawn) [Example 2l, N-{2-[2-oxo-5-(trifluoromethyl)-1,2-dihydropyridin-1-yl]-3-{[(CIS)-4-phenylcyclohexyl]oxy}propyl}methanesulfonamide], for which the EC50 was greater than 10000 nM.

For `COc1ccc(=O)n(C(CNS(C)(=O)=O)CO[C@H]2CC[C@@H](c3ccccc3)CC2)c1` (stereo partly drawn) [Example 2v, N-[2-(5-methoxy-2-oxo-1,2-dihydropyridin-1-yl)-3-{[(CIS)-4-phenylcyclohexyl]oxy}propyl]methanesulfonamide], the concentration for a half-maximal effect (EC50) lay within 1000 to 10000 nM.

As to `Cc1cccn(C(CNS(C)(=O)=O)CO[C@H]2CC[C@@H](c3ccccc3)CC2)c1=O` (stereo partly drawn) [Example 1c, N-[2-(3-methyl-2-oxo-1,2-dihydropyridin-1-yl)-3-{[(CIS)-4-phenylcyclo-hexyl]oxy}propyl] methane-sulfonamide], the EC50 lay within 100 to 1000 nM.

For the compound `Cc1cc(C(CNS(=O)(=O)CF)CO[C@H]2CC[C@@H](c3cc(F)cc(F)c3)CC2)c(=O)n(C)c1` (relative stereo) [Example 5t, N-[2-(1,5-dimethyl-2-oxo-1,2-dihydropyridin-3-yl)-3-{[(CIS)-4-(3,5-difluorophenyl)cyclohexyl]oxy}propyl]-1-fluoromethanesulfonamide], the EC50 is less than 100 nM.

Regarding `Cc1cc(-c2cccnc2)cn(C(CNS(C)(=O)=O)CO[C@H]2CC[C@@H](c3ccccc3)CC2)c1=O` (stereo partly drawn) [Example 6a, N-(2-{5-methyl-6-oxo-1,6-dihydro-[3,3′-bipyridin]-1-yl}-3-{[(CIS)-4-phenylcyclohexyl]oxy}propyl) methanesulfonamide], the EC50 fell in the range of 1000 to 10000 nM.

On to `Cc1cc(C(CNS(=O)(=O)N(C)C)CO[C@H]2CC[C@@H](c3cc(F)cc(F)c3)CC2)c(=O)n(C)c1` (stereo partly drawn) [Example 5u, 3-{1-[(dimethylsulfamoyl)amino]-3-{[(CIS)-4-(3,5-difluorophenyl)cyclohexyl]oxy}propan-2-yl}-1,5-dimethyl-1,2-dihydropyridin-2-one], for which the EC50 was less than 100 nM.

Consider `Cc1cc(C)c(=O)n(C(CNS(=O)(=O)N(C)C)CO[C@H]2CC[C@@H](c3cccc(F)c3)CC2)c1` (single isomer, unassigned; isomer 1) [Example 2ar, (R or S) 1-[1-[(dimethylsulfamoyl)amino]-3-{[(CIS)-4-(3-fluorophenyl)cyclohexyl]oxy}propan-2-yl]-3,5-dimethyl-1,2-dihydropyridin-2-one-Isomer 1], for which the EC50 is less than 100 nM.
